Source: patent publication US20160250285A1, “NEUROPROTECTIVE PEPTIDES” (priority 2013, published 2016)

Tests used:
[1] = test system: primary cortical neuronal cultures
Description: Establishment of cortical cultures was as previously described (Meloni et al. 2001). Briefly, cortical tissue from E18-E19 Sprague-Dawley rats was dissociated in Dulbecco's modified Eagle medium (DMEM; Invitrogen, Australia) supplemented with 1.3 mM L-cysteine, 0.9 mM NaHCOa, 10 units/ml papain (Sigma, USA) and 50 units/ml DNase (Sigma) and washed in cold DMEM/10% horse serum. Neurons were resuspended in Neurobasal (Invitrogen) containing 2% B27 supplement (B27; Invitrogen). Before seeding, 96-well sized glass wells (6 mm diameter, ProTech, Australia) or 96-well plastic plates (ProSciTech, Australia) were coated with poly-D-lysine overnight ([…]: 50 mg/mL; 70-150 K, Sigma). Excess poly-D-lysine solution was then removed and replaced with Neurobasal (containing 2% B27; 4% fetal bovine serum; 1% horse serum; […] glutamate; […] 2-mercaptoethanol; and […]). Neurons were plated to obtain ≈10,000 viable neurons for each well on day in vitro 11-12. Neuronal cultures were maintained in a CO2 incubator (5% CO2, 95% air balance, 98% humidity) at 37° C. On day in vitro 4 one third of the culture medium was removed and replaced with fresh Neurobasal/2% B27 containing the mitotic inhibitor, cytosine arabinofuraNOside (1 mM final concentration; Sigma). On day in vitro 8 one half of the culture medium was replaced with Neurobasal/2% B27. Cultures were used on day in vitro 11 or 12 after which time they routinely consist of >97% neurons and 1-3% astrocytes (Meloni et al. 2001).
Peptides were added to culture wells (96-well plate format) 15 minutes prior to glutamic acid or kainic acid exposure by removing media and adding 50 μl of Neurobasal/2% 327 containing CPPs, control peptides or MK801/CNQX. To induce excitotoxicity, 50 μl of Neurobasal/2% B27 containing glutamic acid (200 μM) or kainic acid (400 μM) or NMDA (200 μM) was added to the culture wells (100 μM glutamic acid, 200 μM kainic acid and NMDA 100 μM final concentration). Cultures were incubated at 37° C. in the CO2 incubator for 5 minutes for glutamic acid, 45 minutes for kainic acid and 10 minutes for NMDA exposure, after which time the media was replaced with 100 μl of 50% Neurobasal/2% N2 supplement (Invitrogen) and 50% balanced salt solution (BSS; see below). Cultures were incubated for a further 24 hours at 37° C. in the CO2 incubator. The untreated controls with or without glutamic acid or kainic acid treatment received the same wash steps and media additions.
(§1) Twenty-four hours after insult, neuronal cultures were examined by light microscopy for qualitative assessment of neuronal cell viability. Neuronal viability was quantitatively measured by 3-(4,5,dimethyliazol-2-yl)-5-(3-carboxymethoxy-phenyl)-2-(4-sulfophenyl)-2H-tetrazolium salt (MTS) assay (Promega, Australia). The MTS assay measures the cellular conversion of the tetrazolium salt to a water-soluble brown formazan salt, which is detected spectrophotometrically at 490 nm. MTS absorbance data were converted to reflect proportional cell viability relative to both the untreated and treated controls, with the untreated control taken as 100% viability, and presented as mean±SEM. For studies using astrocytes, bEND3, and SH-Y5Y cells, raw MTS data was used to generate graphs. Viability data was analysed by ANOVA, followed by post-hoc Fischer's PLSD test, with P<0.05 values considered statistically significant. Four- to six wells were used in all assays.

[2] = test system: primary rat astrocytes; assay: In vitro ischemia/OGD model, astrocytes; type: cell-based; details: 2 μM, 15 min prior to OGD (FIG. 42)
Description: A brain endothelial cell line (bEND3) and a neuroblastoma cell line (SH-SY5Y) were also used for some experiments. bEND3 and SH-SY5Y cells were cultured using standard techniques in DMEM plus 5 or 15% foetal calf serum. Rat primary astrocytes were obtained and cultured as described for cortical neurons except DMEM plus 10% foetal calf serum was used instead of Neurobasal/2% B27, and the mitotic inhibitor, cytosine arabinofuraNOside was not used.
The in vitro ischemia model was also used for bEND3 cells, SH-SY5Y cells, and astrocytes. For bEND3 cells anaerobic incubation was extended to 2-3 hours and upon removal from the anaerobic incubator, 60 μl of DMEM/2% FCS was added to wells. […]
as §1, with “For studies using astrocytes, bEND3, and SH-Y5Y cells, raw MTS data was used to generate graphs. Viability data was analysed by ANOVA, followed by post-hoc Fischer's PLSD test, with P<0.05 values considered statistically significant. Four- to six wells were used in all assays.” left out

Row | Compound | neuroprotection ([1]; FIG. 2) | fold more potent than TAT-D, based on IC50 values ([1]; kainic acid model) [fold] | IC50 ([1]; read-out: IC50: Kainic acid model, Table 3, from FIG. 2, 200 μM kainic acid 45 min, viability 24 h, MTS) [nM] | astrocyte cell death after in vitro ischemia [2]
1 | N=C(N)NCCC[C@H](NC(=O)[C@H](CCCNC(=N)N)NC(=O)[C@H](CCCNC(=N)N)NC(=O)[C@H](CCCNC(=N)N)NC(=O)[C@H](CCCNC(=N)N)NC(=O)[C@H](CCCNC(=N)N)NC(=O)[C@H](CCCNC(=N)N)NC(=O)[C@H](CCCNC(=N)N)NC(=O)[C@@H](N)CCCNC(=N)N)C(=O)O [Peptide R9] | neuroprotective | 7 | 810 | –
2 | H-RRRRRRRRRRRRRRRRRR-OH [Peptide R18] | – | – | – | reduced astrocyte cell death
